Tests used:
Details in all cases: incubation time: 72 h
[1] = system: CAL-85-1; assay: normalised response (% of control), CellTox Green; higher = less cell death (100 = DMSO, 0 = benzethonium chloride kill control)
Procedure, shortened: (§1)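 Every value is a normalised signal taken at one concentration of a dilution series. Compound was placed in 384-well plates at 5 concentrations in 10-fold steps over a compound-specific 10,000-fold range, and 20 µl of breast cancer cell suspension was seeded onto it. After 72 h, CellTox Green fluorescence (485/520 nm) was measured first and CellTiter-Glo luminescence second, following 10 min at room temperature. Each plate was scaled to 0.1 % DMSO (100) and a positive kill control (0).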

[2] = system: MFM-223; assay: as above
Procedure, shortened: as §1

[3] = system: Hs578T; assay: as above
Procedure, shortened: as §1

[4] = system: MDA-MB-436; assay: as above
Procedure, shortened: as §1

[5] = system: MCF-10A; assay: as above
Procedure, shortened: as §1

[6] = system: BT-474; assay: as above
Procedure, shortened: as §1

[7] = system: HCC1143; assay: as above
Procedure, shortened: as §1

[8] = system: MDA-MB-468; assay: as above
Procedure, shortened: as §1

[9] = system: CAL-51; assay: as above
Procedure, shortened: as §1

[10] = system: HCC1937; assay: as above
Procedure, shortened: as §1

[11] = system: BT-549; assay: as above
Procedure, shortened: as §1

[12] = system: CAL-120; assay: as above
Procedure, shortened: as §1

[13] = system: HCC1599; assay: as above
Procedure, shortened: as §1

[14] = system: DU-4475; assay: as above
Procedure, shortened: as §1

[15] = system: MDA-MB-231; assay: as above
Procedure, shortened: as §1

[16] = system: MDA-MB-453; assay: as above
Procedure, shortened: as §1

[17] = system: CAL-85-1; assay: normalised response (% of control), CellTiter-Glo; higher = more viable cells (100 = DMSO, 0 = benzethonium chloride kill control)
Experimental: (§2)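 DSRT, 72 h incubation, CellTox Green / CellTiter-Glo readout. Signal is normalised to DMSO and benzethonium chloride controls. Value is the normalised response at dose 3.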

[18] = system: CAL-148; assay: as above
Experimental: as §2

[19] = system: MFM-223; assay: as above
Experimental: as §2

[20] = system: HDQ-P1; assay: as above
Experimental: as §2

[21] = system: Hs578T; assay: as above
Experimental: as §2

[22] = system: MDA-MB-436; assay: as above
Experimental: as §2

[23] = system: MCF-10A; assay: as above
Experimental: as §2

[24] = system: BT-474; assay: as above
Experimental: as §2

[25] = system: HCC1143; assay: as above
Experimental: as §2

[26] = system: MDA-MB-468; assay: as above
Experimental: as §2

[27] = system: CAL-51; assay: as above
Experimental: as §2

[28] = system: HCC1937; assay: as above
Experimental: as §2

[29] = system: BT-549; assay: as above
Experimental: as §2

[30] = system: CAL-120; assay: as above
Experimental: as §2

[31] = system: SK-BR-3; assay: as above
Experimental: as §2

[32] = system: HCC1599; assay: as above
Experimental: as §2

[33] = system: DU-4475; assay: as above
Experimental: as §2

[34] = system: MDA-MB-231; assay: as above
Experimental: as §2

[35] = system: MDA-MB-453; assay: as above
Experimental: as §2

[36] = system: CAL-148; assay: normalised response (% of control), CellTox Green; higher = less cell death (100 = DMSO, 0 = benzethonium chloride kill control)
Procedure, shortened: as §1

[37] = system: HDQ-P1; assay: as above
Procedure, shortened: as §1

Compound	normalised response [1] [%]	normalised response [2] [%]	normalised response [3] [%]	normalised response [4] [%]	normalised response [5] [%]	normalised response [6] [%]	normalised response [7] [%]	normalised response [8] [%]	normalised response [9] [%]	normalised response [10] [%]	normalised response [11] [%]	normalised response [12] [%]	normalised response [13] [%]	normalised response [14] [%]	normalised response [15] [%]	normalised response [16] [%]	normalised response [17] [%]	normalised response [18] [%]	normalised response [19] [%]	normalised response [20] [%]	normalised response [21] [%]	normalised response [22] [%]	normalised response [23] [%]	normalised response [24] [%]	normalised response [25] [%]	normalised response [26] [%]	normalised response [27] [%]	normalised response [28] [%]	normalised response [29] [%]	normalised response [30] [%]	normalised response [31] [%]	normalised response [32] [%]	normalised response [33] [%]	normalised response [34] [%]	normalised response [35] [%]	normalised response [36] [%]	normalised response [37] [%]
CN(N=O)C(=O)N[C@@H](C=O)[C@@H](O)[C@H](O)[C@H](O)CO [Streptozocin] (100 nM)	107	75.2	52.8	111	64.2	103	114	124	105	73.6	107	107	104	105	113	104	104	107	103	107	109	101	109	102	106	98.8	106	99.8	100	109	102	104	102	112	103	–	–
CS(=O)(=O)c1ccc(C2=C(c3ccccc3)C(=O)OC2)cc1 [Rofecoxib] (100 nM)	107	88.2	103	104	88.5	104	98.7	118	111	68.7	95.7	104	101	108	117	106	102	109	104	98.7	109	105	114	101	108	104	105	95.8	106	104	110	99	102	106	108	101	–
C#Cc1cccc(Nc2ncnc3cc(OCCOC)c(OCCOC)cc23)c1 [Erlotinib] (100 nM)	86.2	103	75.5	98.9	85.9	101	114	118	111	107	93	95.6	104	102	–	106	100	115	103	74	100	102	65	98.3	102	90.8	105	99	105	98.1	112	102	105	118	109	103	108
Cn1c(Nc2ccc(C(F)(F)F)cc2)nc2cc(Oc3ccnc(-c4ncc(C(F)(F)F)[nH]4)c3)ccc21 [RAF265] (10 nM)	106	103	98	90.1	64.3	96.2	116	158	92.7	–	98.1	101	107	103	104	108	99.6	113	105	99.2	106	109	118	107	102	102	83.3	100	99.5	107	108	116	105	110	106	103	52.6
CCCCCCCCCCCCCCCCCCOP(=O)([O-])OC1CC[N+](C)(C)CC1 [Perifosine] (25 nM)	109	93.5	105	112	106	102	89.7	95.6	93.7	88	97.1	103	97.9	104	92.4	99.7	98.5	88.8	93.4	108	100	104	105	101	101	100	96.8	103	101	109	91.3	101	96	105	87	103	–
COc1cc2nccc(Oc3ccc(NC(=O)C4(C(=O)Nc5ccc(F)cc5)CC4)cc3)c2cc1OC [Cabozantinib] (10 nM)	96.5	100	69.2	96.2	85.1	95.6	104	62.5	102	102	107	98.1	91.5	99.5	–	101	103	110	99.4	93.5	99.3	105	97.2	93.9	99.2	97.8	111	94.6	102	98	94.3	113	100	99.3	100	76	–
Oc1nc(-c2ccc(C(F)(F)F)cc2)nc2c1CSCC2 [XAV-939] (100 nM)	111	96.6	109	102	95.1	101	108	130	90.2	104	98.8	101	101	102	100	105	99.6	101	97	106	101	102	98.5	93.2	104	92	77.1	92.9	103	96.3	99.1	92.3	99.8	90.9	98.2	99.6	–
O=P1(NCCCl)OCCCN1CCCl (stereo not given) [Ifosfamide] (100 nM)	110	97.8	56.1	102	102	100	74.1	194	90.4	–	112	98	95.1	97.9	87.4	89.3	95.1	92	91.2	98.9	96.8	94.9	97.9	97	99.7	94.8	68.5	98.2	102	94.3	89.5	101	95.3	91.8	88.8	90.8	88
CC1(C)NC(=O)N(c2ccc([N+](=O)[O-])c(C(F)(F)F)c2)C1=O [Nilutamide] (100 nM)	102	103	109	–	–	101	119	148	109	119	98.4	102	108	103	105	99.1	101	119	110	102	103	102	105	105	105	105	109	98.4	101	102	109	118	103	101	103	96.7	–

— the supplement of paper PMC4862054
